Data reported in patent US11596626B2, “Compound for use against pathogenic Neisseria and Haemophilus species and Moraxella catarrhalis” (priority 2017, dated 2023).
“Also recorded” adds a separate entry of the source.

Legend:
[1] = test system: Neisseria gonorrhoeae strain MS11; assay: Growth curves in liquid culture (optical density) vs DMSO control; type: cell-based
Procedure: (§1) Growth experiments with NQNO were conducted against Neisseria gonorrhoeae strain MS11 (Edwards, M., et al., Antigenic analysis of gonococcal pili using monoclonal antibodies, J Exp Med, 1984. 160(6): p. 1782-91) and a multidrug-resistant N. gonorrhoeae isolate from Slovenia (Unemo M, Golparian O, Potočnik M, Jeverica S. Treatment failure of pharyngeal gonorrhoea with internationally recommended first-line ceftriaxone verified in Slovenia, September 2011. Euro Surveill. 2012; 17(25):pii=20200), Neisseria macacae, and Lactobacillus brevis. The bacteria were inoculated in GC (Difco™ GC medium Ref. 228950, BD Becton Dickinson) and PPM broth (15 g/L Proteon Pepton, 1 g/L soluble starch, 5 g/L NaCl, 4 g/L KH2PO4, 1 g/L K2HPO4, pH 7.5) (Neisseriae) or TSB (BBL™ Trypticase Soy Broth Ref 211768, BD Becton Dickinson) (Lactobacillus) supplemented with solvent (DMSO) or the indicated concentrations of NQNO (5-50 04) and their growth at 37° C. was monitored over the course of 10 h by optical density readings in 30 minute intervals.
(§2) Neisseria strains were cultured in PPM medium (15 g/l Proteon Pepton, 1 g/l soluble starch, 5 g/l NaCl, 4 g/l KH2PO4, 1 g/l K2HPO4, pH 7.5) for liquid culture and on GC plates (BD Difco™ GC Medium Base) supplemented with 1% vitamin mix (100 g/l glucose, 10 WI glutamine, 26 g/l L-cystein, 100 mg/l carboxylase, 250 mg/l NAD, 500 μl Fe(NO3)3, 150 mg/l arginine, 3 mg/l thiamine-HCl, 10 mg/l vitamine B12, 13 mg/I p-amino benzoic acid, 1.1 g/l L-cystin, 1 g/l adenine; 500 mg/l uracil, 30 mg/I guanine). […]
(§3) Before every experiment, bacteria were pre-cultured in 5 ml liquid medium for at least 2 hours then harvested and resuspended in PBS (phosphate buffered saline). Optical density (OD) was determined and a volume equal to an OD of 0.2 was inoculated into 5 ml of the respective medium. […] Samples were incubated for either 10.5 hours, until they reached stationary phase (three measured values in stationary phase) or until they reached an OD of 2.5. Optical density was determined every 0.5 h.

Neisseria macacae = assay: as above; type: cell-based; settings: 5-50 μM, FIG. 3
Procedure: as §1, §2, §3

[2] = test system: multidrug-resistant N. gonorrhoeae isolate from Slovenia; assay: as above; type: cell-based, Neisseria gonorrhoeae
Procedure: as §1, with “intervals. […]” for “intervals.”
Before every experiment, bacteria were pre-cultured in 5 ml liquid medium for at least 2 hours then harvested and resuspended in PBS (phosphate buffered saline). Optical density (OD) was determined and a volume equal to an OD of 0.2 was inoculated into 5 ml of the respective medium. […] Optical density was determined every 0.5 h.

[3] = test system: immortalized human vaginal epithelial cells (MS74); assay: MTT assay of metabolic activity (cytotoxicity); type: cell-based; settings: FIG. 13
Excerpt: HeLa S3 cells were cultivated in Dulbecco's modified Eagle's medium (DMEM) medium supplemented with 10% fetal calf serum and passaged every 2-3 days. Primary human vaginal epithelial cells (hVEC/MS74) were obtained from A. J. Schaeffer (Feinberg School of Medicine, Northwestern University, Chicago, Ill.) and are derived from vaginal tissue of a post-menopausal person. The cell line was created through immortalization of these cells with human papilloma virus 16, E6 and E7 genes according to literature (N. Rajan et. al., Characterization of an immortalized human vaginal epithelial cell line. J Urol 163, 616-622 (2000)). MS74 were cultured on gelatine-coated cell culture dished using Dulbecco's modified Eagle's medium (DMEM) medium (biochrom) supplemented with 10% fetal calf serum, 1% non-essential amino acids and 1% pyruvate at 37° C. in 5% CO2 and subcultured when half confluency was reached.
All plates were coated overnight at 4° C. with 0.1% gelatine in PBS before use. 2×10^4 HeLa S3 or MS74 cells were incubated with the mentioned concentrations of NQNO in 100 μl of their respective medium and incubated for 2 days at 37° C. and 5% CO2. 10 μl of MTT solution (12 mM in PBS, sterile filtered with […]) were added. The cells were subsequently incubated for 2 h at 37° C. […] 0D550 was measured using a Thermo Fisher Varioskan Flash spectrophotometer.

N. gonorrhoeae = assay: Immunofluorescence staining of upper vaginal tract sections of infected CEAtg mice; type: in vivo, Neisseria gonorrhoeae; settings: 20 μl of 50 μM 2 h after infection, tissue 20 h later, FIGS. 8 and 9
Procedure: 6 to 8 week old, female CEA-transgenic mice were infected with N. gonorrhoeae. 2 h after infection, the animals were treated with 20 μl buffer containing solvent (DMSO) or 50 μM NQNO (Compound represented by the Formula (5)). 20 h later, the genital tract was excised and cryosections were stained for cell nuclei (Hoechst; blue), human CEA (red) and N. gonorrhoeae (gonococci, green) (FIG. 8).
Additional cryosections from the same samples were stained for cell nuclei (Hoechst; blue), human collagen (red) and N. gonorrhoeae (gonococci, green) (FIG. 9).
In particular, in the above experiments the genital tract of infected mice was excised and immediately fixed with 4% paraformaldehyde for at least 24 h. The fixed tissue was sequentially transferred to 10% sucrose, 0.05% cacodylic acid for 1 h at 4° C., to 20% sucrose for 1 h at 4° C., and then into 30% sucrose at 4° C. overnight. Organs were mounted in the embedding medium (Cryo-M-Bed; Bright Instrument, Huntingdon, UK) and frozen at −20° C. 10 μm thick sections were cut at −20° C. using a cryostat (Vacutom HM500, Microm, Germany). Sections were stained with a mouse monoclonal antibody against collagen type IV (clone M3F7; dilution 1:200) together with a polyclonal rabbit antibody against N. gonorrhoeae (dilution 1:100). […]

CCCCCCCCCc1cc(=O)c2ccccc2n1O [NQNO, 1-Hydroxy-2-nonylquinolin-4(1H)-one]
Concentration leading to complete abrogation of gonococcal growth in vitro ([1]; N. gonorrhoeae MS11, 37° C., growth monitored over 10 h, FIG. 1): ≤ 5 µM
Concentration leading to complete abrogation of gonococcal growth in vitro ([1]; N. gonorrhoeae MS11, mass concentration given for 5 μM): < 1.4 µg/mL
Effect on growth (Neisseria macacae): did not compromise the growth
Concentration leading to complete growth inhibition ([2]; 37° C., 10 h, FIG. 2): ≤ 5 µM
Concentration leading to complete growth inhibition ([2]; mass concentration given for 5 μM): < 1.4 µg/mL
Metabolic activity (MTT) ([3]; 50 μM, two days): only slightly reduced metabolic activity
Cytotoxicity (metabolic activity, MTT) ([3]; up to 25 μM, 2 days): not harmed
Gonococci on the mucosal surface (fluorescence microscopy) (N. gonorrhoeae): hardly any gonococci could be detected; also recorded: no gonococci could be detected
